IC50 data for 23 compounds are collected here from US8912216B2, “Hetaryl-[1,8]naphthyridine derivatives” (Merck Patent GmbH, priority 2010, dated 2014).

The subject of assay [1] is TGF-beta-induced phosphorylation of Smad2 and Smad3 in Mv1-Lu cells. The assay is described as follows: Inhibition of Smad2/3 phosphorylation in Mv1Lu cells (Example 35A). The assay is classed as cell-based, mink Mustela vison. The following applies: Neogale vison, read-out: TβR activity (Example 35A). The procedure:
Inhibition of Smad2/3 Phosphorylation in Mv1Lu Cells by TGF-bta Receptor I Kinase Inhibitors
This assay was used to determine the inhibitory potency of compounds on TGF-beta-induced phosphorylation of Smad2 (Ser465/467) and Smad3 (Ser423/425). Mv1-Lu cells (lung epithelial cell line from mink Mustela vison; ATCC number: CCL-64) were seeded in DMEM (Invitrogen) supplemented with 10% fetal bovine serum (Pan Biotech) at a defined cell density in 24-well or 96-well plates (24-well plate: 1.5×10^5 cells per well; 96-well plate: 4×10^4 cells per well). Cell cultures were incubated in DMEM at 37° C. and 10% CO2. On the next day, the medium was replaced and cells were serum-starved for 16-20 hours. The following day, serial dilutions of compounds were added to the wells, pre-incubated for 1.5 hrs before recombinant TGF-beta 1 ligand (final concentration 5 ng/ml; R&D systems) was added. After one hour of ligand stimulation, lysates were prepared and analyzed using an enzyme-linked immunosorbent assay kit (PathScan Phospho-Smad2 Kit, Cell Signaling Technologies). The ELISA detects phosphorylated Smad2 as well as phosphorylated Smad3 with the phospho-specific antibody. TGF-beta stimulated cells and unstimulated cells served as positive and negative controls (100% and background control). The concentration of the vehicle DMSO was kept constant at 0.2% (v/v) in all wells. Dose-response relationships were fitted using curve fitting algorithms of the RS1 statistics software package (Brooks Automation Inc. RS/1—Statistical Tools Handbook. Release 6.2) to determine the concentration at which half-maximal inhibition (IC50) of Smad2/3 phosphorylation was achieved.

For the next assay, the target named is T1, GST-ALK5 (Homo sapiens, UniProt P36897).
T1 sequence (P36897 34-503): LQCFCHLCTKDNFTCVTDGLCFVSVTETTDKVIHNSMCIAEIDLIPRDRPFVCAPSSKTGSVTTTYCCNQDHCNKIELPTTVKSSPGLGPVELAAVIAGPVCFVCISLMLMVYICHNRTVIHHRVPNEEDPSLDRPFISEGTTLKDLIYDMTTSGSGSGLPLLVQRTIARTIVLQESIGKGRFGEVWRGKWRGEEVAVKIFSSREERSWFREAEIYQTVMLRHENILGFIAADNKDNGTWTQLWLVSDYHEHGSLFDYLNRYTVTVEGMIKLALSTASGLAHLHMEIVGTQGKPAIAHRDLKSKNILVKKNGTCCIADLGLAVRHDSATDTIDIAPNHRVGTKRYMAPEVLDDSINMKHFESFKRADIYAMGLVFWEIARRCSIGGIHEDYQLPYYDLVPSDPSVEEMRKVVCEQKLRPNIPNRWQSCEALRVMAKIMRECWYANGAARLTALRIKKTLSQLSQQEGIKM
Kind of assay: In-vitro (enzyme) kinase assay, 384-well flashplate (Example 36). It counts as biochemical. The note with it: GST-ALK5, GST-SMAD2 substrate, 3 mM ATP, 30° C., 45 min; read-out: TβR activity (Example 36). The procedure:
In-vitro (Enzyme) Assay for Determination of the Efficacy of Inhibitors of the Inhibition of TGF-beta-Mediated Effects
The kinase assay was carried out as 384-well flashplate assay. 31.2 nM of GST-ALK5, 439 nM of GST-SMAD2 and 3 mM of ATP (with 0.3 μCi of ^33P-ATP/well) were incubated in a total volume of 35 μl (20 mM of HEPES, 10 mM of MgCl2, 5 mM of MnCl2, 1 mM of DTT, 0.1 of BSA, pH 7.4) without or with test substance (5-10 concentrations) at 30° C. for 45 min. The reaction was stopped using 25 μl of 200 mM EDTA solution, filtered with suction at room temperature after 30 min, and the wells were washed with 3 times 100 μl of 0.9% NaCl solution. Radioactivity was measured in the TopCount. The IC50 values were calculated using RS1.

[2] abbreviates: Mv1-Lu cells, TGF-beta 1 5 ng/ml, phospho-Smad2/3 ELISA.

Molecules are shown by their SMILES. Structures can show the parent of a compound that is named as a salt. Where two headings read alike, the source gives them in different places.

As to `Cc1cccc(-c2cc(-c3cncc(-c4ccccc4)c3)c3cccnc3n2)n1` [compound 5, 2-(6-Methyl-pyridin-2-yl)-4-(5-phenyl-pyridin-3-yl)-[1,8]naphthyridine], the IC50 in assay [1] (setting [2]) lay within 1000 to 10000 nM; at GST-ALK5, 100 to 1000 nM. Turning to `Fc1ccc(Cl)cc1-c1cc(-c2cncc(-c3cnn(CCN4CCCC4)c3)c2)c2cccnc2n1` [compound 21, 2-(5-Chloro-2-fluoro-phenyl)-4-{5-[1-(2-pyrrolidin-1-yl-ethyl)-1H-pyrazol-4-yl]-pyridin-3-yl}-[1,8]naphthyridine], the IC50 (in assay [1] (setting [2]); at GST-ALK5) was under 100 nM in each case. For `Fc1ccc(Cl)cc1-c1cc(-c2cncc(-c3ccccc3)c2)c2ccccc2n1` [compound 6, 2-(5-Chloro-2-fluoro-phenyl)-4-(5-phenyl-pyridin-3-yl)-quinoline], the IC50 was over 10000 nM in assay [1] (setting [2]) and 1000 to 10000 nM at GST-ALK5. For `CN1CCN(c2ccc(-c3cncc(-c4cc(-c5ccccc5F)nc5ncccc45)n3)cn2)CC1` [compound 82, 2-(2-Fluoro-phenyl)-4-{6-[6-(4-methyl-piperazin-1-yl)-pyridin-3-yl]-pyrazin-2-yl}-[1,8]naphthyridine], in that order: 100 to 1000 nM and under 100 nM. On to `Fc1ccc(Cl)cc1-c1cc(-c2cncc(-c3ccc(OCCN4CCCC4)cc3)c2)c2cccnc2n1` [compound 156, 2-(5-Chloro-2-fluoro-phenyl)-4-{5-[4-(2-pyrrolidin-1-yl-ethoxy)-phenyl]-pyridin-3-yl}-[1,8]naphthyridine], for which the IC50 (in assay [1] (setting [2]); on GST-ALK5) was under 100 nM in each case. With `Fc1ccc(Cl)cc1-c1cc(-c2cccnc2-c2ccccc2)c2cccnc2n1` [compound 101, 2-(5-Chloro-2-fluoro-phenyl)-4-(2-phenyl-pyridin-3-yl)-[1,8]naphthyridine], the IC50 (in assay [1] (setting [2]); at GST-ALK5) was over 10000 nM throughout. For the compound `CN1CCN(c2ccc(-c3cc(-c4cc(-c5cc(Cl)ccc5F)nc5ncccc45)cnn3)cc2)CC1` [compound 117, 2-(5-Chloro-2-fluoro-phenyl)-4-{6-[4-(4-methyl-piperazin-1-yl)-phenyl]-pyridazin-4-yl}-[1,8]naphthyridine], the IC50 (in assay [1] (setting [2]); on GST-ALK5) was 100 to 1000 nM throughout.

As to `Fc1ccccc1-c1cc(-c2cncc(-c3cnn(C4CCNCC4)c3)c2)c2cccnc2n1` [compound 29, 2-(2-Fluoro-phenyl)-4-[5-(1-piperidin-4-yl-1H-pyrazol-4-yl)-pyridin-3-yl]-[1,8]naphthyridine dihydrochloride], the IC50 (in assay [1]; on GST-ALK5) was under 100 nM each time. As for `Fc1ccccc1-c1cc(-c2cncc(-c3cnn(CCn4cccn4)c3)c2)c2cccnc2n1` [compound 77, 2-(2-Fluoro-phenyl)-4-{5-[1-(2-pyrazol-1-yl-ethyl)-1H-pyrazol-4-yl]-pyridin-3-yl}-[1,8]naphthyridine], the results for the IC50 (in assay [1] (setting [2]); at GST-ALK5) were 1000 to 10000 nM and 100 to 1000 nM, respectively.

Consider `Fc1ccccc1-c1cc(-c2cncc(-n3cccn3)c2)c2cccnc2n1` [compound 79, 2-(2-Fluoro-phenyl)-4-(5-pyrazol-1-yl-pyridin-3-yl)-[1,8]naphthyridine], for which the values for the IC50 (in assay [1] (setting [2]); on GST-ALK5) were 1000 to 10000 nM and 100 to 1000 nM, respectively. `CC(C)(C)OC(=O)Nc1cc(-c2cncc(-c3cc(-c4cc(Cl)ccc4F)nc4ncccc34)c2)ccn1` [compound 112, {5-[2-(5-Chloro-2-fluoro-phenyl) [1,8]naphthyridin-4-yl]-[3,4′]bipyridinyl-2′-yl}-carbamic acid tert-butyl ester]: the IC50 (in assay [1] (setting [2]); on GST-ALK5) was 100 to 1000 nM throughout. Turning to `OCCN1CCC(n2cc(-c3cncc(-c4cc(-c5cc(Cl)ccc5F)nc5ncccc45)c3)cn2)CC1` [compound 45, 2-[4-(4-{5-[2-(5-Chloro-2-fluoro-phenyl)-[1,8]naphthyridin-4-yl]-pyridin-3-yl}-pyrazol-1-yl)-piperidin-1-yl]-ethanol], the IC50 (in assay [1] (setting [2]); on GST-ALK5) was under 100 nM in each case. Regarding `CN1CCN(CCCn2cc(-c3cncc(-c4cc(-c5ccccc5F)nc5ncccc45)c3)cn2)CC1` [compound 86, 2-(2-Fluoro-phenyl)-4-(5-{1-[3-(4-methyl-piperazin-1-yl)-propyl]-1H-pyrazol-4-yl}-pyridin-3-yl)-[1,8]naphthyridine], the values for the IC50 (in assay [1] (setting [2]); at GST-ALK5) were 100 to 1000 nM and under 100 nM, respectively.

`Fc1ccc(F)c(-c2cc(-c3cncc(-c4cccc(OCCN5CCNCC5)c4)c3)c3cccnc3n2)c1` [compound 148, 2-(2,5-Difluoro-phenyl)-4-{5-[3-(2-piperazin-1-yl-ethoxy)-phenyl]-pyridin-3-yl}-[1,8]naphthyridine]: the IC50 (in assay [1] (setting [2]); on GST-ALK5) was under 100 nM throughout. On to `Fc1ccc(Cl)cc1-c1cc(-c2cncc(-c3cccc(C4CCNCC4)c3)c2)c2cccnc2n1` [compound 159, 2-(5-Chloro-2-fluoro-phenyl)-4-[5-(3-piperidin-4-yl-phenyl)-pyridin-3-yl]-[1,8]naphthyridine], for which the values for the IC50 (in assay [1] (setting [2]); at GST-ALK5) were 100 to 1000 nM and under 100 nM, respectively. On to `CN1CC[C@H](n2cc(-c3cncc(-c4cc(-c5cc(Cl)ccc5F)nc5ncccc45)c3)cn2)C1` [compound 68, 2-(5-Chloro-2-fluoro-phenyl)-4-{5-[1-((S)-1-methyl-pyrrolidin-3-yl)-1H-pyrazol-4-yl]-pyridin-3-yl}-[1,8]naphthyridine], for which the IC50 (in assay [1] (setting [2]); at GST-ALK5) was under 100 nM each time.

For `CN1CCC(c2nc(-c3cncc(-c4cc(-c5ccccc5F)nc5ncccc45)c3)no2)CC1` [compound 60, 2-(2-fluoro-phenyl)-4-{5-[5-(1-methyl-piperidin-4-yl)-[1,2,4]oxadiazol-3-yl]-pyridin-3-yl}-[1,8]naphthyridine], the IC50 on GST-ALK5 was 100 to 1000 nM. `CN1CCN(c2ccnc(-c3cncc(-c4cc(-c5ccccc5F)nc5ncccc45)c3)n2)CC1` [compound 70, 2-(2-fluoro-phenyl)-4-{5-[4-(4-methyl-piperazin-1-yl)-pyrimidin-2-yl]-pyridin-3-yl}-[1,8]naphthyridine]: the IC50 at GST-ALK5 is 100 to 1000 nM. Consider `Fc1ccc(Cl)cc1-c1cc(-c2cncc(-c3cn(CCN4CCOCC4)nn3)c2)c2cccnc2n1` [compound 42, 2-(5-chloro-2-fluoro-phenyl)-4-{5-[1-(2-morpholin-4-yl-ethyl)-1H-[1,2,3]triazol-4-yl]-pyridin-3-yl}-[1,8]naphthyridine], for which, in assay [1] (setting [2]), the IC50 is 100 to 1000 nM. For `Fc1ccccc1-c1cc(-c2cncc(-c3cnn(CCN4CCOCC4)c3)c2)c2cccnc2n1` [compound 41, 2-(2-Fluoro-phenyl)-4-{5-[1-(2-morpholin-4-yl-ethyl)-1H-pyrazol-4-yl]-pyridin-3-yl}-[1,8]naphthyridine], the IC50 in assay [1] (setting [2]) was in the range of 100 to 1000 nM.

`Cn1ccc(-c2cncc(-c3cc(-c4ccccc4F)nc4ncccc34)c2)n1` [compound 66, 2-(2-Fluoro-phenyl)-4-[5-(1-methyl-1H-pyrazol-3-yl)-pyridin-3-yl]-[1,8]naphthyridine]: in assay [1] (setting [2]), the IC50 was 1000 to 10000 nM. On to `Cn1nccc1-c1cncc(-c2cc(-c3ccccc3F)nc3ncccc23)c1` [compound 67, 2-(2-Fluoro-phenyl)-4-[5-(2-methyl-2H-pyrazol-3-yl)-pyridin-3-yl]-[1,8]naphthyridine], for which the IC50 in assay [1] (setting [2]) lay within 1000 to 10000 nM.

Turning to `OCCn1cc(-c2cncc(-c3cc(-c4ccccc4F)nc4ncccc34)c2)cn1` [compound 40, 2-(4-{5-[2-(2-fluoro-phenyl)-[1,8]naphthyridin-4-yl]-pyridin-3-yl}-pyrazol-1-yl)-ethanol], the IC50 in assay [1] (setting [2]) is 100 to 1000 nM.
